In patent publication US8129417B2, “Substituted octahydrocyclopenta[C]pyrrol-4-amines as calcium channel blockers” (Abbott Laboratories, priority 2008, dated 2012):

These compounds were tested against human Cav2.2 (Homo sapiens, UniProt Q00975) (assay: Assessment of calcium channel activity using FLIPR (Ca2+ influx in IMR32 cells)). Conditions: 60 minute pre-incubation with compound, 2 μM nifedipine, depolarized with 80 mM KCl.
Assay type: cell-based
Procedure, shortened: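 IMR32 neuroblastoma cells seeded at 1-1.2×10^5 cells/well and grown 48 h at 37 °C before FLIPR Ca2+ influx read. Percent inhibition at each concentration vs no-inhibitor activity; IC50 by non-linear sigmoidal dose-response fit.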

Chain of human Cav2.2 (Q00975 whole entry): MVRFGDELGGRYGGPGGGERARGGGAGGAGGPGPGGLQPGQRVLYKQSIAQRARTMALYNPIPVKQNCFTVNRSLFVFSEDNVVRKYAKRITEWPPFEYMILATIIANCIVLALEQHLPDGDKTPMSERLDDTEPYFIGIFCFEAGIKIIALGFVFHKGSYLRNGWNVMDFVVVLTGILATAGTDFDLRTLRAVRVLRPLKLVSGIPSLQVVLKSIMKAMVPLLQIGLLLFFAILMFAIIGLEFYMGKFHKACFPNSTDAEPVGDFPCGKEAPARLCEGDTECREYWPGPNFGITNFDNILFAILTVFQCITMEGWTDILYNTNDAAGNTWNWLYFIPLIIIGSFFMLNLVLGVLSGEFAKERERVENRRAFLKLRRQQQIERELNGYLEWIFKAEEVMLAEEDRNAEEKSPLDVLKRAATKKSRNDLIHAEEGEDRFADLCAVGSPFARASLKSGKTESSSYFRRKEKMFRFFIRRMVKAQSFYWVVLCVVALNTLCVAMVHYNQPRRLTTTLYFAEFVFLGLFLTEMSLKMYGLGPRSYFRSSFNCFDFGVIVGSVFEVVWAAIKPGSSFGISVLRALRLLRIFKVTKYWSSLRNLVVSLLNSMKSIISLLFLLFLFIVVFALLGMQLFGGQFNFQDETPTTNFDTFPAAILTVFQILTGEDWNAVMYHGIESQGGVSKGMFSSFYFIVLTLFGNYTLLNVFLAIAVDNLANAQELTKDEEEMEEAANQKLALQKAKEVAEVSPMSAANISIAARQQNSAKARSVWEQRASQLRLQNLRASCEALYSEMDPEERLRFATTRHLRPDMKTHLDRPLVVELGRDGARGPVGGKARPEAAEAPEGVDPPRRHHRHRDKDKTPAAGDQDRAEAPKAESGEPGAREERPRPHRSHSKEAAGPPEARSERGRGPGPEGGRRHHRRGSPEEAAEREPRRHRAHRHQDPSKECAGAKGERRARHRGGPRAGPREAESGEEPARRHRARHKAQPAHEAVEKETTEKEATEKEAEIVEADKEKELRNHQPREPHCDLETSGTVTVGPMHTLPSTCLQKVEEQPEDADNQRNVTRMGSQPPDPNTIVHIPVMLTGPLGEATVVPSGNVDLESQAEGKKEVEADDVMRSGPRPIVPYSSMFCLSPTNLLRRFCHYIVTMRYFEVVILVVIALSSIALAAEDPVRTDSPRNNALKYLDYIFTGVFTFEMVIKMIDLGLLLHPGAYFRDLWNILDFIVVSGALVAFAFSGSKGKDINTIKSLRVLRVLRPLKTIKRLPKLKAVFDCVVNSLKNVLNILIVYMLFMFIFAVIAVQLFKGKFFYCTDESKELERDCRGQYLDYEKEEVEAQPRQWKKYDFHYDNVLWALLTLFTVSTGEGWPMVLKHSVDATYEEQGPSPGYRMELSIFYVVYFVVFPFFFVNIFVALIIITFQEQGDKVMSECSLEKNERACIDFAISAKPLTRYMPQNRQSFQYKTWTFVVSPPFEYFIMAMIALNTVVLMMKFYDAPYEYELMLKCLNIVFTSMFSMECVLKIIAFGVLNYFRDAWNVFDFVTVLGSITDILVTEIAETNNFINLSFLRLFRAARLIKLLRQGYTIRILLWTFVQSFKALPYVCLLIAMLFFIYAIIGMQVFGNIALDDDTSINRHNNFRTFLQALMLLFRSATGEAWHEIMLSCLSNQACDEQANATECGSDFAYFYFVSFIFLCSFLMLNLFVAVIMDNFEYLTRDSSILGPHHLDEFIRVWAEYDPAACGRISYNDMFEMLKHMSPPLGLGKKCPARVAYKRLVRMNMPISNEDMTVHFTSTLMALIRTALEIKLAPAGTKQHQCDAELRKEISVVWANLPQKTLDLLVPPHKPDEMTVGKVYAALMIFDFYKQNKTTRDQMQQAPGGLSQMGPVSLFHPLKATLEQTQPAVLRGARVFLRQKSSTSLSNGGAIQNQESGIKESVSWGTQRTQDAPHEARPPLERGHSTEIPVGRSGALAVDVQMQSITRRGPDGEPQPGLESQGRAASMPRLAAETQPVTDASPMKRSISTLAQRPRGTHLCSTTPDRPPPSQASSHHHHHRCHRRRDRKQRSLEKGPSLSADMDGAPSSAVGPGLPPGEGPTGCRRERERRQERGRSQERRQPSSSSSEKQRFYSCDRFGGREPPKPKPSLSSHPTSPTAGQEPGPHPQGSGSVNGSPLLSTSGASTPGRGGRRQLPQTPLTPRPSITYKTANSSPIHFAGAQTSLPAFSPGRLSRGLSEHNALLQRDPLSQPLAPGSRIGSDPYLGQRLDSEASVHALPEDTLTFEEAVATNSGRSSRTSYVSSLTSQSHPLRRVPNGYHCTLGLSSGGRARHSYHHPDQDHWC
Chain of human Cav2.2 (P54289 25-946 partner limits assumed): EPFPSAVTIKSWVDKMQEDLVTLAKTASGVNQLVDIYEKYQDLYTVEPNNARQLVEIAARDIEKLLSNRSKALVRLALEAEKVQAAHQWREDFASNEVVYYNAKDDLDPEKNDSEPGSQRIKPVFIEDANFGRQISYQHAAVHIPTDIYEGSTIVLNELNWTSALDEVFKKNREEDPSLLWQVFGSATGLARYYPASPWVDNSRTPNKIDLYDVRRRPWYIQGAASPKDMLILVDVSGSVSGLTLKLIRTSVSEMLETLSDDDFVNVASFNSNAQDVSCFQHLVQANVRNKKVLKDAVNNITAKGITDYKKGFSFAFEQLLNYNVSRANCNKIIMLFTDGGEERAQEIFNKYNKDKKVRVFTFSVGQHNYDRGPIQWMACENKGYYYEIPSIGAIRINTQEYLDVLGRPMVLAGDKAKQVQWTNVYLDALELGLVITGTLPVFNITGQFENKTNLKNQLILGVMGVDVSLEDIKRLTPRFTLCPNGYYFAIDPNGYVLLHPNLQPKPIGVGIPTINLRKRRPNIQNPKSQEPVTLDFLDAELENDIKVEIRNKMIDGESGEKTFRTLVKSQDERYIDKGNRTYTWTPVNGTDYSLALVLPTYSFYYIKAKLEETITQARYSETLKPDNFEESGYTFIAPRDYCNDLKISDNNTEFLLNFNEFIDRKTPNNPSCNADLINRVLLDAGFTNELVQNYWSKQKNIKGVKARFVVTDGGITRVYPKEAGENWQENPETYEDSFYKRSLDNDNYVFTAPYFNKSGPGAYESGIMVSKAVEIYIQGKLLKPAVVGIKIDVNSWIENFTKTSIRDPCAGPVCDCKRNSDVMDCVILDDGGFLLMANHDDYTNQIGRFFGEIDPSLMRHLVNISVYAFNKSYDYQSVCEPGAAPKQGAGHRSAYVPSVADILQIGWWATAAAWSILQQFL
Chain of human Cav2.2 (P54289 947-1103 partner limits assumed): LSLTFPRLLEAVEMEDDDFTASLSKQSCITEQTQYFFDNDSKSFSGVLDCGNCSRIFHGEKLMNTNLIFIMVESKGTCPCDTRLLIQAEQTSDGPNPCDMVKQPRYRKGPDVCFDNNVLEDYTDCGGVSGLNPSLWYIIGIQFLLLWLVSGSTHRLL
Chain of human Cav2.2 (P54284 whole entry partner): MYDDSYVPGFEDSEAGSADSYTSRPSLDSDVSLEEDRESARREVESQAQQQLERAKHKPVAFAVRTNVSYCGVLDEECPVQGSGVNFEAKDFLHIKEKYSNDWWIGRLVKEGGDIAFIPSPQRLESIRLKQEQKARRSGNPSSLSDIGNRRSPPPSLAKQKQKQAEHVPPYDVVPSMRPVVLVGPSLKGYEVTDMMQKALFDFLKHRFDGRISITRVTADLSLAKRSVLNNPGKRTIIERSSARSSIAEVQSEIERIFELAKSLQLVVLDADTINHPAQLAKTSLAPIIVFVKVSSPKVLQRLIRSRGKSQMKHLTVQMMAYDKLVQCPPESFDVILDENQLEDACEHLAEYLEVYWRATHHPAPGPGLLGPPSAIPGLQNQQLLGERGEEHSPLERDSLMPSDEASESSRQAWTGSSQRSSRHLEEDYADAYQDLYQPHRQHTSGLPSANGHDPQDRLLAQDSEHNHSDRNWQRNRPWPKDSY

How did the IC50 turn out when CC(C)(C)OC(=O)N[C@H](C(=O)N[C@H]1CC[C@@H]2CN(S(=O)(=O)c3ccc(C(F)(F)F)cc3)C[C@@H]21)C(C)(C)C [Example 341, tert-butyl(S)-3,3-dimethyl-1-oxo-1-((3aR,4S,6aS)-2-(4-(trifluoromethyl)phenylsulfonyl)octahydrocyclopenta[c]pyrrol-4-ylamino)butan-2-ylcarbamate] was run?
Its IC50 is 2.01 µM.

Which IC50 does the source give for CC(C)(C)OC(=O)N[C@H](C(=O)N[C@@H]1CC[C@H]2CN(S(=O)(=O)c3ccc(C(F)(F)F)cc3)C[C@H]21)C(C)(C)C [Example 342, tert-butyl(S)-3,3-dimethyl-1-oxo-1-((3aS,4R,6aR)-2-(4-(trifluoromethyl)phenylsulfonyl)octahydrocyclopenta[c]pyrrol-4-ylamino)butan-2-ylcarbamate] here?
Its IC50 is 2.17 µM.

With CCCC[C@@H](C(=O)N[C@H]1CC[C@@H]2CN(S(=O)(=O)c3ccc(C(F)(F)F)cc3)C[C@@H]21)N(C)C(=O)OC(C)(C)C [Example 343, tert-butyl methyl((S)-1-oxo-1-((3aR,4S,6aS)-2-(4-(trifluoromethyl)phenylsulfonyl)octahydrocyclopenta[c]pyrrol-4-ylamino)hexan-2-yl)carbamate] as the compound, how does the IC50 read?
Its IC50 is 1.01 µM.

CC(C)(C)C[C@H](NC(=O)OC(C)(C)C)C(=O)N[C@H]1CC[C@@H]2CN(S(=O)(=O)c3ccc(C(F)(F)F)cc3)C[C@@H]21 [Example 344, tert-butyl(S)-4,4-dimethyl-1-oxo-1-((3aR,4S,6aS)-2-(4-(trifluoromethyl)phenylsulfonyl)octahydrocyclopenta[c]pyrrol-4-ylamino)pentan-2-ylcarbamate] was tested. Which IC50 did it give?
The IC50 was 0.99 µM.

For CC(C)C[C@@H](C(=O)N[C@@H]1CC[C@H]2CN(C(=O)c3cccc(C(F)(F)F)c3)C[C@H]21)N1CCCC1 [Example 345, (2S)-4-methyl-2-pyrrolidin-1-yl-N-{(3aS,4R,6aR)-2-[3-(trifluoromethyl)benzoyl]octahydrocyclopenta[c]pyrrol-4-yl}pentanamide], which IC50 is on record?
Its IC50 is 4.32 µM.

For CN[C@@H](CC(C)(C)C)C(=O)N[C@@H]1CC[C@H]2CN(Cc3ccccc3)C[C@H]21 [Example 358, N^1-[(3aS,4R,6aR)-2-benzyloctahydrocyclopenta[c]pyrrol-4-yl]-N^2,4-dimethyl-L-leucinamide], which IC50 is on record?
The IC50 was 9 µM.

CN[C@@H](CC(C)C)C(=O)N[C@@H]1CC[C@@H]2CN(Cc3ccccc3)C[C@@H]21 [Example 364, N^1-[(3aR,4R,6aS)-2-benzyloctahydrocyclopenta[c]pyrrol-4-yl]-N^2-methyl-L-leucinamide] was tested. Which IC50 did it give?
Its IC50 is 8.12 µM.

CCN[C@@H](CC(C)C)C(=O)N[C@H]1CC[C@@H]2CN(Cc3cccc(C(F)(F)F)c3)C[C@@H]21 [Example 366, N^2-ethyl-N^1-{(3aR,4S,6aS)-2-[3-(trifluoromethyl)benzyl]octahydrocyclopenta[c]pyrrol-4-yl}-L-leucinamide] was tested. Which IC50 did it give?
The IC50 was 5.28 µM.

For CN[C@H](C(=O)N[C@@H]1CC[C@H]2CN(Cc3ccc(C(F)(F)F)cc3)C[C@H]21)C(C)C [Example 367, N^2-methyl-N^1-{(3aS,4R,6aR)-2-[4-(trifluoromethyl)benzyl]octahydrocyclopenta[c]pyrrol-4-yl}-L-valinamide], which IC50 is on record?
Its IC50 is 7 µM.

O=C(N[C@@H]1CC[C@H]2CN(Cc3ccc(C(F)(F)F)cc3)C[C@H]21)[C@@H]1CCCCN1 [Example 370, (2S)—N-{(3aS,4R,6aR)-2-[4-(trifluoromethyl)benzyl]octahydrocyclopenta[c]pyrrol-4-yl}piperidine-2-carboxamide] was tested. Which IC50 did it give?
The IC50 was 6.02 µM.

How did the IC50 turn out when CN[C@H](C(=O)N[C@@H]1CC[C@H]2CN(Cc3cccc(C(F)(F)F)c3)C[C@H]21)C(C)C [Example 373, N^2-methyl-N^1-{(3aS,4R,6aR)-2-[3-(trifluoromethyl)benzyl]octahydrocyclopenta[c]pyrrol-4-yl}-L-valinamide] was run?
Its IC50 is 7.58 µM.

With CN[C@@H](CC(C)C)C(=O)N[C@@H]1CC[C@H]2CN(Cc3ccc(C(F)(F)F)c(F)c3)C[C@H]21 [Example 374, N^1-{(3aS,4R,6aR)-2-[3-fluoro-4-(trifluoromethyl)benzyl]octahydrocyclopenta[c]pyrrol-4-yl}-N^2-methyl-L-leucinamide] as the compound, how does the IC50 read?
The IC50 was 5.36 µM.

With CN[C@@H](CC(C)C)C(=O)N[C@@H]1CC[C@H]2CN(Cc3ccc(F)c(C(F)(F)F)c3)C[C@H]21 [Example 375, N^1-{(3aS,4R,6aR)-2-[4-fluoro-3-(trifluoromethyl)benzyl]octahydrocyclopenta[c]pyrrol-4-yl}-N^2-methyl-L-leucinamide] as the compound, how does the IC50 read?
The IC50 was 8.22 µM.

How did the IC50 turn out when CCN[C@@H](CC(C)C)C(=O)N[C@H]1CC[C@@H]2CN(S(=O)(=O)c3cccc(C(F)(F)F)c3)C[C@@H]21 [Example 383, N^2-ethyl-N^1-((3aR,4S,6aS)-2-{[3-(trifluoromethyl)phenyl]sulfonyl}octahydrocyclopenta[c]pyrrol-4-yl)-L-leucinamide] was run?
Its IC50 is 0.8 µM.

Which IC50 does the source give for CN[C@@H](CC(C)C)C(=O)N[C@H]1CC[C@@H]2CN(S(=O)(=O)c3cccc(C(F)(F)F)c3)C[C@@H]21 [Example 384, N^2-methyl-N^1-((3aR,4S,6aS)-2-{[3-(trifluoromethyl)phenyl]sulfonyl}octahydrocyclopenta[c]pyrrol-4-yl)-L-leucinamide] here?
Its IC50 is 1.14 µM.

N[C@@H](Cc1ccccc1)C(=O)N[C@H]1CC[C@@H]2CN(S(=O)(=O)c3cccc(C(F)(F)F)c3)C[C@@H]21 [Example 385, N-((3aR,4S,6aS)-2-{[3-(trifluoromethyl)phenyl]sulfonyl}octahydrocyclopenta[c]pyrrol-4-yl)-L-phenylalaninamide] was tested. Which IC50 did it give?
Its IC50 is 1.85 µM.

For CC(C)[C@H](N)CC(=O)N[C@H]1CC[C@@H]2CN(S(=O)(=O)c3cccc(C(F)(F)F)c3)C[C@@H]21 [Example 388, (3R)-3-amino-4-methyl-N-((3aR,4S,6aS)-2-{[3-(trifluoromethyl)phenyl]sulfonyl}octahydrocyclopenta[c]pyrrol-4-yl)pentanamide], which IC50 is on record?
Its IC50 is 4.53 µM.

O=C(N[C@H]1CC[C@@H]2CN(S(=O)(=O)c3cccc(C(F)(F)F)c3)C[C@@H]21)[C@@H]1CCCCN1 [Example 390, (2S)—N-((3aR,4S,6aS)-2-{[3-(trifluoromethyl)phenyl]sulfonyl}octahydrocyclopenta[c]pyrrol-4-yl)piperidine-2-carboxamide] was tested. Which IC50 did it give?
The IC50 was 2.46 µM.

For CCCC[C@H](NC)C(=O)N[C@H]1CC[C@@H]2CN(S(=O)(=O)c3cccc(C(F)(F)F)c3)C[C@@H]21 [Example 393, N^2-methyl-N^1-((3aR,4S,6aS)-2-{[3-(trifluoromethyl)phenyl]sulfonyl}octahydrocyclopenta[c]pyrrol-4-yl)-L-norleucinamide], which IC50 is on record?
Its IC50 is 1.08 µM.

Which IC50 does the source give for CCC[C@H](NC)C(=O)N[C@H]1CC[C@@H]2CN(S(=O)(=O)c3cccc(C(F)(F)F)c3)C[C@@H]21 [Example 394, N^2-methyl-N^1-((3aR,4S,6aS)-2-{[3-(trifluoromethyl)phenyl]sulfonyl}octahydrocyclopenta[c]pyrrol-4-yl)-L-norvalinamide] here?
Its IC50 is 0.98 µM.

How did the IC50 turn out when CN[C@@H](CC(C)C)C(=O)N[C@H]1CC[C@@H]2CN(S(=O)(=O)c3ccc(C(F)(F)F)cc3)C[C@@H]21 [Example 395, N^2-methyl-N^1-((3aR,4S,6aS)-2-{[4-(trifluoromethyl)phenyl]sulfonyl}octahydrocyclopenta[c]pyrrol-4-yl)-L-leucinamide] was run?
Its IC50 is 2.12 µM.

Which IC50 does the source give for O=C(N[C@@H]1CC[C@H]2CN(S(=O)(=O)c3cccc(C(F)(F)F)c3)C[C@H]21)[C@@H]1CCCN1 [Example 396, N-((3aS,4R,6aR)-2-{[3-(trifluoromethyl)phenyl]sulfonyl}octahydrocyclopenta[c]pyrrol-4-yl)-L-prolinamide] here?
The IC50 was 3.55 µM.

Which IC50 does the source give for O=C(N[C@@H]1CC[C@H]2CN(S(=O)(=O)c3cccc(C(F)(F)F)c3)C[C@H]21)[C@@H]1CCCCN1 [Example 398, (2S)—N-((3aS,4R,6aR)-2-{[3-(trifluoromethyl)phenyl]sulfonyl}octahydrocyclopenta[c]pyrrol-4-yl)piperidine-2-carboxamide] here?
The IC50 was 3.25 µM.

Which IC50 does the source give for CN[C@H](C(=O)N[C@@H]1CC[C@H]2CN(S(=O)(=O)c3ccc(F)cc3)C[C@H]21)C(C)C [Example 400, N^1-{(3aS,4R,6aR)-2-[(4-fluorophenyl)sulfonyl]octahydrocyclopenta[c]pyrrol-4-yl}-N^2-methyl-L-valinamide] here?
Its IC50 is 6.86 µM.

With CN[C@H](C(=O)N[C@@H]1CC[C@H]2CN(S(=O)(=O)c3ccc(C(F)(F)F)cc3)C[C@H]21)C(C)C [Example 402, N^2-methyl-N^1-((3aS,4R,6aR)-2-{[4-(trifluoromethyl)phenyl]sulfonyl}octahydrocyclopenta[c]pyrrol-4-yl)-L-valinamide] as the compound, how does the IC50 read?
The IC50 was 2.06 µM.

CCC[C@H](NC)C(=O)N[C@@H]1CC[C@H]2CN(S(=O)(=O)c3ccc(C(F)(F)F)cc3)C[C@H]21 [Example 404, N^2-methyl-N^1-((3aS,4R,6aR)-2-{[4-(trifluoromethyl)phenyl]sulfonyl}octahydrocyclopenta[c]pyrrol-4-yl)-L-norvalinamide] was tested. Which IC50 did it give?
The IC50 was 1.02 µM.

With CN[C@H](C(=O)N[C@@H]1CC[C@H]2CN(S(=O)(=O)c3cccc(C(F)(F)F)c3)C[C@H]21)C(C)C [Example 406, N^2-methyl-N^1-((3aS,4R,6aR)-2-{[3-(trifluoromethyl)phenyl]sulfonyl}octahydrocyclopenta[c]pyrrol-4-yl)-L-valinamide] as the compound, how does the IC50 read?
The IC50 was 3.69 µM.

How did the IC50 turn out when CN[C@@H](CC(C)C)C(=O)N[C@@H]1CC[C@H]2CN(S(=O)(=O)c3ccc(F)c(C(F)(F)F)c3)C[C@H]21 [Example 407, N^1-((3aS,4R,6aR)-2-{[4-fluoro-3-(trifluoromethyl)phenyl]sulfonyl}octahydrocyclopenta[c]pyrrol-4-yl)-N^2-methyl-L-leucinamide] was run?
The IC50 was 5.43 µM.

CC(C)(C)[C@H](N)C(=O)N[C@H]1CC[C@@H]2CN(S(=O)(=O)c3ccc(C(F)(F)F)cc3)C[C@@H]21 [Example 408, 3-methyl-N^1-((3aR,4S,6aS)-2-{[4-(trifluoromethyl)phenyl]sulfonyl}octahydrocyclopenta[c]pyrrol-4-yl)-L-valinamide] was tested. Which IC50 did it give?
Its IC50 is 5.11 µM.

Which IC50 does the source give for CC(C)(C)[C@H](N)C(=O)N[C@@H]1CC[C@H]2CN(S(=O)(=O)c3ccc(C(F)(F)F)cc3)C[C@H]21 [Example 409, 3-methyl-N^1-((3aS,4R,6aR)-2-{[4-(trifluoromethyl)phenyl]sulfonyl}octahydrocyclopenta[c]pyrrol-4-yl)-L-valinamide] here?
Its IC50 is 5.02 µM.
